Data on four molecules can be found in US6013648A, “CB2 Receptor agonist compounds” (Sanofi, priority 1995, dated 2000).

One assay deals with human B cells. The assay is described as follows: DNA synthesis rate (thymidine absorption) of human B cells co-stimulated with anti-Ig antibodies. As to conditions: for increase in the thymidine absorption (DNA synthesis rate): nanomolar concentrations, human B cells co-stimulated with anti-Ig antibodies. Format: cell-based. The source says:
It has been shown that, at nanomolar concentrations, compounds according to the invention, such as 3-(morpholin-4-ylmethyl)-5-methyl-6-(naphth-1-ylcarbonyl)-2,3-dihydropyrrolo[1,2,3-de]-1,4-benzoxazine methanesulfonate and 1-(2-(morpholin-4-yl)ethyl)-2-methyl-3-(naphth-1-ylcarbonyl)-7-methoxyindole, are capable of substantially increasing the DNA synthesis rate of human B cells co-stimulated with anti-Ig antibodies (increase of about 40% in the thymidine absorption).

In assay [1] the target is T1, central human receptors (CB1) (Homo sapiens, UniProt P21554).
T1 construct: expressed in transfected cells; host or cells: Chinese hamster ovary (CHO) cells
T1 sequence (P21554 whole entry): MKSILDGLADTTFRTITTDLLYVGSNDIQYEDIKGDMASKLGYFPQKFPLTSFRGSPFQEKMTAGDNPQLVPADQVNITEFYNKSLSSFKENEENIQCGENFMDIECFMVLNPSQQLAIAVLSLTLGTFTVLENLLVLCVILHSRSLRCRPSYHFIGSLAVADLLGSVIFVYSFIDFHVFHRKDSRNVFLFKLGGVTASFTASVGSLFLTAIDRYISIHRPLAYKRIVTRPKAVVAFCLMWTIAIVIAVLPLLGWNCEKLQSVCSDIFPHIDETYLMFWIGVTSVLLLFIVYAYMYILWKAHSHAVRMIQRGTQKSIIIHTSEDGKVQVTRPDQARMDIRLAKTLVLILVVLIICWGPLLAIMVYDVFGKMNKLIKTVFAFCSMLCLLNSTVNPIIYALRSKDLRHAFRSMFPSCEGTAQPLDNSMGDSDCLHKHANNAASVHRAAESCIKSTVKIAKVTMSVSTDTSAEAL
The assay can be described thus: affinity binding test, membranes from cell lines expressing CB1. The protocol: (§1) Affinity binding tests were carried out under the experimental conditions described by Devane et al. (Molecular Pharmacology (1988) 34, 605-613) with membranes derived from cell lines in which the CB1 and CB2 receptors were expressed (Munro et al., Nature (1993) 365, 561-565).

Assay [2] has as its target T2, peripheral human cannabinoid receptors (CB2) (Homo sapiens, UniProt P34972).
T2 construct: expressed in transfected cells; host or cells: cell line expressing CB2 (probably CHO; the print may tie CHO to CB1 only)
The assay can be described thus: affinity binding test, membranes from cell lines expressing CB2. The settings on record: in vitro binding; read-out: affinity for the CB2 receptor. The protocol: as §1

In assay [3] the target is T3, human CB2 cannabinoid receptors (Homo sapiens, UniProt P34972).
T3 construct: expressed in transfected cells; host or cells: probably CHO cells (the print may tie CHO to CB1 only)
T3 sequence (P34972 whole entry): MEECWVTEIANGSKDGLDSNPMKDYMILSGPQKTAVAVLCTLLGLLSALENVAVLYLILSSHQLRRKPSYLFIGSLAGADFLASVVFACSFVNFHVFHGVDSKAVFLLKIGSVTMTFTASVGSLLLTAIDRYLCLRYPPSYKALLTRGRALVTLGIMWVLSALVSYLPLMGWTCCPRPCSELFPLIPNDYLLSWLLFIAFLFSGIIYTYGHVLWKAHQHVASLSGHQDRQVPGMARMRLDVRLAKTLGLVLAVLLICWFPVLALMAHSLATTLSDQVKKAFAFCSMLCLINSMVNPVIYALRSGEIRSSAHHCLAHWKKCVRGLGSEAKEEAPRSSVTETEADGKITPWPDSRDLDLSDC
The assay is described as follows: forskolin-stimulated cAMP production / adenylate cyclase inhibition, CB2. Format: cell-based. The protocol:
Furthermore, the compounds according to the invention behave in vitro as specific agonists for the human CB2 cannabinoid receptors relative to the CB1 receptors expressed in CHO cells. In fact, by binding specifically to the CB2 receptors, they reduce forskolin-stimulated cAMP production by inhibiting the adenylate cyclase. The tests were carried out under the experimental conditions described by Matsuda et al. (Nature, 1990, 346, 561-564).
By way of example, the following adenylate cyclase 50% inhibitory concentrations, IC50, were calculated for 1-(2-(morpholin-4-yl)ethyl)-2-methyl-3-(4-bromonaphth-1-ylcarbonyl)-7-methoxyindole: […]

The target of assay [4] is T4, CB1 receptors expressed in CHO cells (Homo sapiens, UniProt P21554).
T4 construct: expressed in transfected cells; host or cells: CHO cells
T4 sequence (P21554 whole entry): as the sequence (P21554 whole entry) above
The assay is described as follows: forskolin-stimulated cAMP production / adenylate cyclase inhibition, CB1. Format: cell-based. How it is done: The tests were carried out under the experimental conditions described by Matsuda et al. (Nature, 1990, 346, 561-564).

SMILES strings stand for the structures.

T2 sequence (P34972 whole entry): as the sequence (P34972 whole entry) above

For the molecule `CS(=O)(=O)O.Cc1c(C(=O)c2cccc3ccccc23)c2cccc3c2n1C(CN1CCOCC1)CO3` (single isomer, unassigned) [3-(morpholin-4-ylmethyl)-5-methyl-6-(naphth-1-ylcarbonyl)-2,3-dihydropyrrolo[1,2,3-de]-1,4-benzoxazine methanesulfonate], the “increase in the thymidine absorption (DNA synthesis rate)” value in the assay on human B cells was “about 40%”.
Consider `COc1cccc2c(C(=O)c3cccc4ccccc34)c(C)n(CCN3CCOCC3)c12` [Compound 6, 1-(2-(morpholin-4-yl)ethyl)-2-methyl-3-(naphth-1-ylcarbonyl)-7-methoxyindole], for which the “increase in the thymidine absorption (DNA synthesis rate)” value in the assay with human B cells is listed as “about 40%”.
As usually defined, the IC50 is the concentration needed to halve the response being measured. A lower IC50 goes with higher potency. In the case of `COc1cccc2c(C(=O)c3ccc(Br)c4ccccc34)c(C)n(CCN3CCOCC3)c12` [Compound 22, 1-(2-(Morpholin-4-yl)ethyl)-2-methyl-3-(4-bromonaphth-1-ylcarbonyl)-7-methoxyindole], the results for the Ki in assay [1] and in assay [2] were greater than 1000 nM and 1.8 nM, respectively. The figures for the IC50 in assay [3] and in assay [4] were 1 nM and 1000 nM, respectively.
Take `Cc1c(C(=O)NN2CCCCC2)nn(-c2ccc(Cl)cc2Cl)c1-c1ccc(Cl)cc1` [SR 141716A, reference compound]: the blocking effect entry in the assay on human B cells (wide concentration range, with CP 55940 (or Δ^9 -THC or WIN 55212-2) at 10^-9 M) is recorded as “no blocking effect was observed”.
